The test system of the experiment is CEM cells HIV-1 protection, formazan growth assay. In words: NCI AIDS Antiviral Assay. Particulars: for IC50: measured here: growth of uninfected CEM cells. As to the method: The ability of compounds to protect human CEM cells from HIV-1 infection is measured as a screen for new compounds capable of inhibiting the HIV virus. Five concentrations of drug were tested on uninfected and infected cells and cell growth was measured using a soluble formazan assay. […] Compounds that provided at least 50% protection were retested. Compounds that provided at least 50% protection on retest were listed as moderately active. Compounds that reproducibly provided 100% protection were listed as confirmed active. […] Note that the inability to provide protection could be due to toxicity.

Several values for one entry are separate records, joined by “and”; a condition that tells them apart may be missing. Identical values can stand only once. Activity calls are given as the source filed them.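 How the source made its calls: active means compounds giving half or more protection of infected cells from virus-caused growth loss, again on retest; inactive means the rest.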

Turning to `COC(=O)c1[nH]c(=O)c(C#N)c(C(=O)OC)c1C(=O)/C=C/c1ccccc1`, the EC50 was over 51.3 µM and the IC50 was over 51.3 µM. For the compound `O=C(CS)Nc1cccc(O)c1`, the EC50 was over 200 µM and the IC50 is over 200 µM. For `Nn1c(Cc2ccc([N+](=O)[O-])cc2)n[nH]c1=O`, the EC50 was over 200 µM and the IC50 was over 200 µM. Consider `O=C1[C@@H]2[C@@H](c3ccccc3)[C@]2(Cl)C(=O)[C@H]2[C@H](c3ccccc3)[C@@]12Cl`, for which the result was inactive.

Consider `c1ccc(COC2C3COC(O3)C(OCc3ccccc3)C2OCc2ccccc2)cc1` (stereo not given), for which the EC50 is over 200 µM and the IC50 worked out at 15.1 µM. The like results for `CS(=O)(=O)c1noc(N)n1` were, in that order, over 1510 µM and 1260 µM.

Turning to `COc1ccc(-c2cc(-c3cc(C)cc(Br)c3O)no2)cc1`, the EC50 is over 200 µM and the IC50 was over 200 µM.

With `O=c1[nH]nc(Cc2ccccc2)[nH]1`, the EC50 is over 200 µM and the IC50 was over 200 µM.

`Clc1ccc(-c2c(C3=NCCCN3)nnn2-c2ccc(Cl)cc2)cc1`: the EC50 is over 490 µM and the IC50 was 30.9 µM. For the compound `O=C(O)c1cc2c(cc1CC(Cc1ccc3c(c1)CCC3)C(=O)O)CCC2` (stereo not given), the EC50 was over 200 µM and the IC50 worked out at 105 µM. For `COC(=O)C1=C(C(=O)OC)SC2(S1)C(C(=O)OC)=C(C(=O)OC)Sc1c2ssc1=O`, the EC50 was over 0.2 µM and the IC50 was 0.0575 µM. For `CC(O)CS(=O)(=O)O` (stereo not given) the same measures were over 200 µM and over 200 µM.

Turning to `O=C1NC2=C(CCCCC/C2=N\O)C12CCCCCC2`, the outcome was inactive. `CC1(C)OCC(C2OC(OC(=O)c3ccc([N+](=O)[O-])cc3)C3OC(C)(C)OC23)O1` (stereo not given): the outcome was inactive.

`CC(C)C1=C(O)C2=C(C(=O)C1=O)C1(C)CCCC(C)(C)C1C(O)C2OC=O` (stereo not given): the EC50 was over 200 µM and the IC50 came out at 10.2 µM. Regarding `O=C1OC(c2cccc(C(F)(F)F)c2)c2ccc3ccccc3c21` (stereo not given), the outcome was inactive. As to `COCCOCCOCCOCCOCCOCCOCCOCCOCCOCCOCCOCCOCCOCCOCCOCCOCC(=O)N(CCn1ccc(NC(c2ccccc2)(c2ccccc2)c2ccccc2)nc1=O)CCn1cnc2nc(NC(=O)c3ccccc3)[nH]c(=O)c21`, the EC50 is over 170 µM and the IC50 was 85.1 µM. In the case of `COC(=O)C1=C(C(=O)OC)C2(C)OC1C(=O)C21CC1` (stereo not given), the result was inactive.

For the compound `Cc1ccccc1[P+](Cc1ccccc1)(c1ccccc1)c1ccccc1`, the EC50 was over 200 µM and the IC50 turned out to be 1.26 µM. With `CC(C)[Si]1(C(C)C)OCC2OC(N3C(=O)NC(=O)C[C@@H]3C(O)c3ccccc3)CC2O[Si](C(C)C)(C(C)C)O1` (stereo not given in full), the EC50 is over 200 µM and the concentration for half-maximal inhibition (IC50) is 10.5 µM.

Turning to `N#C/C(=C\n1c(=S)[nH]c2ccccc21)c1nc2ccccc2s1`, the EC50 is over 200 µM and the IC50 is over 200 µM.

Take `CS(=O)(=O)c1ccc(SSc2ccc(S(C)(=O)=O)cc2[N+](=O)[O-])c([N+](=O)[O-])c1`: the outcome was inactive. For `CCCNC(=O)N(C(C)(C)C)S(=O)(=O)c1ccc(Cl)cc1`, the result was inactive. For `COC1(OC)CC2CCCCC2=C(C)N1S(=O)(=O)c1ccccc1` (stereo not given), the outcome was inactive. For `CCC(C)C(NC(=O)c1ccccc1SC(=O)CCCC[n+]1ccccc1)C(=O)O` (stereo not given), the EC50 was 23.4 µM and the IC50 is over 200 µM. With `NC(=O)C1C(=O)Oc2cccnc21` (stereo not given), the outcome was inactive. For `COc1cc(/C=C/C(=O)/C=C/c2cc(OC)c(OC)c(OC)c2)cc(OC)c1OC`, the EC50 was over 200 µM and the IC50 stood at 0.0977 µM. On to `Nc1nc2c(ncn2CC2CCOC2=O)c(=O)[nH]1` (stereo not given), for which the outcome was inactive.

On to `CCOC(=O)c1[nH]cnc1/N=N/N(C)N`, for which the EC50 was over 200 µM and the 50% inhibitory concentration (IC50) was determined as 21.4 µM. For `COc1cccc2c(NCCC[N+](C)(C)[O-])c3c([N+](=O)[O-])ccc(OC)c3nc12`, the EC50 was over 200 µM and the IC50 is 1.32 µM. In the case of `O=C(OCCN=c1c2ccccc2ccc2ccccc12)c1ccc([N+](=O)[O-])cc1`, the EC50 is over 200 µM and the IC50 is over 200 µM. Take `CCOc1ccc(NC(=S)NC=C(C#N)C#N)cc1`: the EC50 was over 200 µM and the IC50 was over 200 µM. As for `COc1cccc(Nc2nc(NS(=O)(=O)c3cc(C)c(Cl)cc3S)n[nH]2)c1`, the EC50 is over 200 µM and the IC50 came to 158 µM. Regarding `COC(=O)C1=CCC(n2cnc3c(Cl)nc(N)nc32)CC1` (stereo not given), the EC50 is over 115 µM and the concentration for half-maximal inhibition (IC50) was determined as 47.9 µM.

On to `Cc1cccc(C(C)(C)C)c1NC(=O)C(=O)Cc1nc2ccccc2s1`, for which the result was inactive. For `CCCCCCCCOC1OC(COC(C)=O)C(OC(C)=O)C(OC(C)=O)C1OC(C)=O` (stereo not given), the EC50 was over 100 µM; the IC50 is > 100 µM and 95.5 µM.

Take `O=S(=O)(CC1=NC2C=CC=CC2N=C1)NCc1ccccc1` (stereo not given): the outcome was inactive. `CN1C(NN)=NS(=O)(=O)c2ccccc21`: the EC50 was over 115 µM and the IC50 was 95.5 µM.

In the case of `COC(=O)C1=C(C(=O)OC)C(C(=O)OC)C(C(=O)OC)C(C(=O)OC)(C(=O)OC)C(C(=O)OC)=C1C(=O)OC` (stereo not given), the result was inactive. Consider `COC(=O)C1=C(C(=O)OC)N(C(C)C)[C@H]2C(C(=O)OC)=C(C(=O)OC)N(C(C)C)[C@@H]12`, for which the EC50 was over 2.45 µM and the IC50 was over 2.45 µM.

As to `O=C(O)c1cc(=O)c2c(OCC(O)COc3cccc4oc(C(=O)O)cc(=O)c34)cccc2o1`, the EC50 is over 200 µM and the IC50 is over 200 µM. Turning to `NC1=NS(=O)(=O)N=C(N)C1=NNc1cccc(Cl)c1`, the EC50 was over 832 µM and the IC50 came out at 138 µM. For the compound `Cc1ccc(S(=O)(=O)n2cnc(CC(NC(=O)C3CCC(=O)N3C(=O)OCc3ccccc3)C(=O)N3CCCC3C(=O)NN)c2)cc1` (stereo not given), the EC50 is over 200 µM and the IC50 is over 200 µM. For `COc1c2c(cc3occ(-c4ccc(CC=C(C)C)cc4)c(=O)c13)OC(C)(C)C=C2`, the EC50 is over 200 µM and the IC50 worked out at 14.1 µM. In the case of `O=C1C2C=CC(C3C=CC2N(Cc2ccccc2)C3=O)N1Cc1ccccc1`, the result was inactive.

With `Cc1cc(Cl)ccc1NC(=O)C1C(=O)C(=O)N(c2ccc(Cl)cc2C)C1=O` (stereo not given), the outcome was inactive. As for `N#Cc1ccc(SSc2ccc(C#N)cc2)cc1`, the EC50 was over 200 µM and the IC50 amounted to 9.55 µM. In the case of `COC(=O)c1cc(O)ccc1NC(=O)c1ccc(O)cc1`, the EC50 is over 912 µM and the IC50 was 363 µM.

`Nc1ccn(CC(=O)NCCCCO)c(=O)n1`: the EC50 was over 200 µM and the IC50 was over 200 µM. On to `CN(C)CCN1C(=O)c2cccc3cc([N+](=O)[O-])cc(c23)C1=O`, for which the EC50 was over 200 µM and the IC50 is 0.0912 µM. In the case of `CCOC(=O)c1c(SC(=O)c2ccc(OC)cc2)n(-c2ccccc2)c(=S)n(-c2ccccc2)c1=O`, the EC50 was over 200 µM and the IC50 turned out to be 28.2 µM.

Take `CCOC(=O)/C=C1\Oc2ccccc2C1(C)O` (stereo not given): the EC50 was over 562 µM and the IC50 was over 562 µM. With `CC(C)N(C(C)C)P(OCCC#N)OC1CC(n2cnc3c(=O)[nH]cnc32)OC1COC(=O)NCCCCCCNC(=O)OC(C)(C)c1ccc(-c2ccccc2)cc1` (stereo not given), the EC50 was over 8.71 µM and the IC50 is over 8.71 µM.

Turning to `C#CCN(C)Cc1ccccc1`, the EC50 was over 200 µM and the IC50 was over 200 µM. For `O/N=C1/CCC/C1=C\c1ccccc1`, the result was inactive. For `N#CCc1nc2c(s1)C(=O)c1ccccc1C2=O`, the EC50 was over 7.94 µM and the IC50 was over 7.94 µM. On to `CCC12CCCN(Cc3ccccc3)C1c1c(n(C)c3ccccc13)C(C(=O)OC)C2` (stereo not given), for which the EC50 was over 32.4 µM and the IC50 is over 32.4 µM. As to `Cc1ccc(C(=O)N(C2CCCCC2)C2CCCCC2)cc1N=NN(C)C`, the EC50 was over 19.5 µM and the IC50 was over 19.5 µM. As to `CCOC(=O)C1(C#N)C(C#N)(C#N)C12CCCCC2` (stereo not given) (tested in a mixture with another compound), the EC50 is over 200 µM and the IC50 worked out at 6.03 µM. For `Cc1ccc(/S(Cc2ccccc2)=N\S(=O)(=O)c2ccc(C)cc2)cc1` (stereo not given) the same measures were over 67.6 µM and over 67.6 µM. For `CCCCI(O)OS(=O)(=O)c1ccc(C)cc1`, the result was inactive.

Turning to `CC1(C)OCC(C2OC(N3O[C@H](CI)C[C@@H]3c3ccccc3)C3OC(C)(C)OC23)O1` (stereo not given in full), the EC50 was 138 µM and the IC50 is over 200 µM. For `CN=S(=O)(c1ccccc1)c1ccccc1` the same measures were 56.2 µM and over 200 µM. Regarding `CC(C)NC(=O)OCCS(=O)c1c(Cl)c(Cl)nn1C` (stereo not given), the EC50 is over 200 µM and the IC50 came to 33.1 µM. As for `CCOC(=O)C1(Sc2ccccc2)CCC2c3[nH]c4ccccc4c3CCN2C1=O` (stereo not given), the EC50 is over 12.3 µM and the IC50 was over 12.3 µM.

For the compound `Fc1ccc(F)c(C2SCc3nc4ccccc4n32)c1` (stereo not given), the outcome was inactive. On to `CCOC(=O)/C(=C/c1ccc(OC)c(OC)c1)P(=O)(OCC)OCC`, for which the EC50 is over 676 µM and the IC50 was 85.1 µM. In the case of `CCCSc1nn2cc(NC(=O)OC)nc2s1`, the EC50 was over 200 µM and the IC50 is 2.29 µM. As for `N#CC(C(=O)CCCC(=O)Nc1ccc(Cl)cc1Cl)c1ccccc1` (stereo not given), the EC50 was over 661 µM and the IC50 was over 661 µM. For the compound `CN=C(NC#N)NCCSCc1nc[nH]c1C`, the EC50 is over 389 µM and the IC50 is over 389 µM.

As for `O=C(O)c1cc2ccccc2c(Br)c1O.O=[N+]([O-])C1CCC(O)C2[N-]CCCC21.[Cu+]`, the EC50 was over 200 µM and the IC50 turned out to be 3.39 µM.

For `CC(=O)C1C(c2ccccc2)C2(C)OC(=O)C(C#N)C12C` (stereo not given), the result was inactive.

The values are drawn from PubChem BioAssay AID179 (DTP/NCI, 2004).
